In the METLIN SMRT retention time set (Domingo-Almenara et al. 2019):

Assay: gradient 5% acetonitrile 3 min, to 50% in 2 min, to 85% in 15 min, held 3 min, 100 µL/min
Details: column: Zorbax Extend-C18 2.1 x 50 mm; eluents: water / acetonitrile, 0.1% formic acid
Procedure, shortened: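 Data were gathered over 3 months by HPLC coupled to a quadrupole time-of-flight mass spectrometer, operated in positive and negative ionization mode. Mixtures of ~100 pure standards ran on a Zorbax Extend-C18 column (2.1 × 50 mm, 1.8 μm) at 100 μL/min, with water and acetonitrile each containing 0.1% formic acid and dead and dwell volumes of 40 μL and 900 μL. Retention time was read from adduct peaks picked by computer and checked manually.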

With `CCc1cccc(NC(=O)C2CCN(S(=O)(=O)c3cn(C)cn3)CC2)c1` as the molecule, how does the RP-LC retention time read?
Its RP-LC retention time is 732 s.

With `COC(=O)c1c(C)[nH]c(C(=O)N2CCCC(C(=O)NCc3ccc(OC)cc3)C2)c1C` (configuration not stated) as the molecule, how does the RP-LC retention time read?
Its RP-LC retention time is 735 s.

With `COc1cccc(-c2csc(-c3nnn(-c4ccc(C)cc4)c3N)n2)c1` as the molecule, how does the RP-LC retention time read?
The RP-LC retention time was 1140 s.

With `Cc1ccc(-c2nnc(Cc3nc(-c4ccc(Br)cc4)no3)o2)cc1F` as the molecule, how does the RP-LC retention time read?
Its RP-LC retention time is 1220 s.

With `O=C(Cn1c(C2CCCO2)nc2ccccc21)Nc1ccccc1` (configuration not stated) as the molecule, how does the RP-LC retention time read?
The RP-LC retention time was 638 s.

With `CCc1nc(-c2ccc(-c3noc(-c4ccnn4C)n3)cc2)cs1` as the molecule, how does the RP-LC retention time read?
The RP-LC retention time was 1220 s.

For `O=C(NCCCN1CCOCC1)c1cc2occc2c(Nc2ccc(F)cc2)n1`, which RP-LC retention time is on record?
Its RP-LC retention time is 652 s.

With `CCC(c1cccs1)N1C(=O)[C@H]2CN(S(=O)(=O)c3cccnc3)C[C@H]2C1=O` (some centres not stated) as the molecule, how does the RP-LC retention time read?
The RP-LC retention time was 824 s.

Which RP-LC retention time does the source give for `COc1ccc(C)cc1NC(=O)Nc1ccc2c(c1)CCN2S(=O)(=O)c1ccc(C)cc1` here?
Its RP-LC retention time is 1100 s.

For `COC(=O)c1cccc(NC(=O)N2CCC3(CC2)NC(=O)c2ccccc2O3)c1`, which RP-LC retention time is on record?
The RP-LC retention time was 736 s.

For `CCOC1CCN(C(=O)Nc2ccccc2C)CC1`, which RP-LC retention time is on record?
Its RP-LC retention time is 732 s.

Which RP-LC retention time does the source give for `O=C(c1cc2occc2c(Nc2ccc(Cl)cc2)n1)N1CCN(c2ccccn2)CC1` here?
Its RP-LC retention time is 713 s.

Which RP-LC retention time does the source give for `Cc1[nH]nc(-c2c(C)sc(C)c2S(=O)(=O)Nc2cccc(Cl)c2)c1C` here?
Its RP-LC retention time is 1100 s.

For `CCN1CCN(c2ccc(NC(=O)c3ccc(C(F)(F)F)cc3)cn2)C1=O`, which RP-LC retention time is on record?
The RP-LC retention time was 823 s.

For `COc1ccc(CNC(=O)CCc2nnc3c4cc(-c5ccccc5)nn4ccn23)cc1`, which RP-LC retention time is on record?
Its RP-LC retention time is 728 s.

With `CCOC(=O)c1c(C)nn(Cc2cccc(Cl)c2)c1N` as the molecule, how does the RP-LC retention time read?
The RP-LC retention time was 884 s.

With `COc1ccc(Cn2nnc(C(=O)NCc3ccco3)c2-n2cccc2)cc1` as the molecule, how does the RP-LC retention time read?
The RP-LC retention time was 925 s.

Which RP-LC retention time does the source give for `CCCC(=O)Nc1ccc(-n2cnc(C(=O)NC3CCCCC3)c2)nc1` here?
Its RP-LC retention time is 758 s.

Which RP-LC retention time does the source give for `COc1cccc(Cn2nc3c(S(=O)(=O)N4CCc5ccccc5C4)cccn3c2=O)c1` here?
The RP-LC retention time was 943 s.

For `Cn1c(=O)c2c(nc(Cc3ccccc3)n2C)n(C)c1=O`, which RP-LC retention time is on record?
The RP-LC retention time was 764 s.

With `c1ccc(-c2nc3nc4c(c(Nc5ccc6c(c5)OCCO6)n3n2)CCC4)cc1` as the molecule, how does the RP-LC retention time read?
The RP-LC retention time was 961 s.

With `CCSc1nnc(NC(=O)c2cc(=O)c(OCc3ccc(F)cc3)co2)s1` as the molecule, how does the RP-LC retention time read?
The RP-LC retention time was 791 s.

For `CCC(C)Nc1nc(N(C)C)nc(-n2cnc(SC)n2)n1` (configuration not stated), which RP-LC retention time is on record?
Its RP-LC retention time is 942 s.

With `O=C(c1ccco1)N1CCN=C1SCc1cccc(C(F)(F)F)c1` as the molecule, how does the RP-LC retention time read?
Its RP-LC retention time is 849 s.

Which RP-LC retention time does the source give for `O=C(Nc1cc(F)cc(F)c1)c1csc(-c2ccc(N3CCCC3)nc2)n1` here?
Its RP-LC retention time is 853 s.

With `CC(C)CCn1c(CCCC(=O)Nc2ccncc2)nc2cccnc21` as the molecule, how does the RP-LC retention time read?
The RP-LC retention time was 601 s.

For `COC(=O)C[C@](O)(CCCC(C)(C)O)C(=O)O[C@@H]1C(OC)=C[C@]23CCCN2CCc2cc4c(cc2[C@H]13)OCO4`, which RP-LC retention time is on record?
The RP-LC retention time was 662 s.

Which RP-LC retention time does the source give for `COCC1CN(C)CC12CCN(S(=O)(=O)c1ccc(F)c(C)c1)CC2` (configuration not stated) here?
Its RP-LC retention time is 659 s.

Which RP-LC retention time does the source give for `CN(CCCNC(=O)C1CCCN(c2nnc(-n3cccc3)s2)C1)C1CCCCC1` (configuration not stated) here?
The RP-LC retention time was 653 s.

Which RP-LC retention time does the source give for `COc1ccc2c(c1)c(CN1CCOCCNC(=O)CC1)cn2C` here?
The RP-LC retention time was 598 s.

Which RP-LC retention time does the source give for `O=S(=O)(c1ccc(Cl)s1)N1CCc2nc(-c3ccccc3)ncc2C1` here?
The RP-LC retention time was 1170 s.

With `O=C(Nc1ccc(Br)cc1)C1CCCN(c2ncc(-c3cccc(F)c3)cn2)C1` (configuration not stated) as the molecule, how does the RP-LC retention time read?
The RP-LC retention time was 1230 s.

Which RP-LC retention time does the source give for `Cc1nc2sccn2c(=O)c1NC(=O)Nc1ccc(C(C)C)cc1` here?
Its RP-LC retention time is 704 s.

Which RP-LC retention time does the source give for `Cc1nc(-c2noc(-c3ccccc3)n2)cn1CC(=O)NCc1ccc2c(c1)OCO2` here?
The RP-LC retention time was 800 s.

With `O=C(Cc1csc(NC(=O)c2ccsc2)n1)NCCOc1ccc(F)cc1` as the molecule, how does the RP-LC retention time read?
Its RP-LC retention time is 747 s.

With `Nc1cc(C2CCN(C(=O)/C=C/c3ccccc3)CC2)no1` as the molecule, how does the RP-LC retention time read?
Its RP-LC retention time is 724 s.

Which RP-LC retention time does the source give for `Cc1cc(NC(=O)NC2CCN(c3ccccc3)C2=O)ccc1Br` (configuration not stated) here?
Its RP-LC retention time is 919 s.
